Results reported in PubChem BioAssay AID330 (DTP/NCI, 2004).
Where “and” joins values, the source holds several entries; their conditions need not be identical. Equal entries are not always repeated. Inconclusive results and toxic doses are left out.

Tested on: P388 leukemia ip, CD2F1 mice, survival T/C
Assay: NCI In Vivo Anticancer Drug Screen. Data for tumor model P388 Leukemia (intraperitoneal) in CD2F1 (CDF1) mice
Conditions: endpoint: median survival time, higher = longer survival
Summary of the method: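 Mice carrying the transplanted tumor received test compound or vehicle. Survival was recorded in each group, and the value is the treated-group measurement divided by that of the vehicle-treated control group.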

[1] = dose: 50.0 mg/kg/injection, schedule: Q01DX005 (ip), vehicle: Klucel (hydroxypropylcellulose) (HPC)
[2] = dose: 100.0 mg/kg/injection, schedule: Q01DX005 (ip), vehicle: Klucel (hydroxypropylcellulose) (HPC)
[3] = dose: 200.0 mg/kg/injection, schedule: Q01DX005 (ip), vehicle: Klucel (hydroxypropylcellulose) (HPC)
[4] = dose: 12.5 mg/kg/injection, schedule: Q01DX009 (ip), vehicle: saline with Tween-80
[5] = dose: 25.0 mg/kg/injection, schedule: Q01DX009 (ip), vehicle: saline with Tween-80
[6] = dose: 50.0 mg/kg/injection, schedule: Q01DX009 (ip), vehicle: saline with Tween-80
[7] = dose: 50.0 mg/kg/injection, schedule: Q01DX005 (ip), vehicle: saline with Tween-80
[8] = dose: 100.0 mg/kg/injection, schedule: Q01DX005 (ip), vehicle: saline with Tween-80
[9] = dose: 200.0 mg/kg/injection, schedule: Q01DX005 (ip), vehicle: saline with Tween-80
[10] = dose: 50.0 mg/kg/injection, schedule: Q01DX009 (ip), vehicle: saline
[11] = dose: 100.0 mg/kg/injection, schedule: Q01DX009 (ip), vehicle: saline
[12] = dose: 200.0 mg/kg/injection, schedule: Q01DX009 (ip), vehicle: saline

What does the source list for `CC1CCC2CC(=O)NC(=O)CC12` (configuration not stated)?
T/C (dose: 6.25 mg/kg/injection, schedule: Q04DX003 (ip), vehicle: saline with Tween-80): 100 % of control; T/C (dose: 12.5 mg/kg/injection, schedule: Q04DX003 (ip), vehicle: saline with Tween-80): 100 % of control; T/C (dose: 25.0 mg/kg/injection, schedule: Q04DX003 (ip), vehicle: saline with Tween-80): 104 % of control

For `c1ccc(-c2cc3nncc(-c4ccccc4)n3n2)cc1`, which T/C [1] is on record?
The T/C was 107 % of control.

And the T/C [2]?
Its T/C is 105 % of control.

What about the T/C [3] of the same compound?
The T/C was 96 % of control.

Which results are given for `Nc1nc(-c2c[nH]c(=O)[nH]c2=O)cs1`?
T/C [4]: 107 % of control; T/C [5]: 107 % of control; T/C [6]: 104 % of control

What does the source list for `Cc1c(N)nc([C@H](CC(N)=O)NC[C@H](N)C(N)=O)nc1C(=O)N[C@H](C(=O)N[C@H](C)[C@@H](O)CC(=O)N[C@H](C(=O)NC(O[C@@H]1O[C@@H](C)[C@@H](N)[C@@H](O)[C@H]1O)C(O)c1nc(-c2nc(C(=O)NCCCCN)cs2)cs1)[C@@H](C)O)[C@@H](O[C@@H]1O[C@@H](CO)[C@@H](O)[C@H](O)[C@@H]1O[C@H]1O[C@H](CO)[C@@H](O)[C@H](OC(N)=O)[C@@H]1O)c1c[nH]cn1` (some centres not stated)?
T/C (dose: 0.5 mg/kg/injection, schedule: Q01DX009 (ip), vehicle: water): 101 % of control; T/C (dose: 1.0 mg/kg/injection, schedule: Q01DX009 (ip), vehicle: water): 98 % of control; T/C (dose: 2.0 mg/kg/injection, schedule: Q01DX009 (ip), vehicle: water): 124 % of control; T/C (dose: 4.0 mg/kg/injection, schedule: Q01DX009 (ip), vehicle: water): 95 % of control; T/C (dose: 8.0 mg/kg/injection, schedule: Q01DX009 (ip), vehicle: water): 123 % of control

What does the source list for `CC(C)(C)SC(=O)CC(O)(c1ccccc1)c1ccccc1`?
T/C (dose: 100.0 mg/kg/injection, schedule: Q04DX003 (ip), vehicle: Klucel (hydroxypropylcellulose) (HPC)): 115 % of control; T/C (dose: 200.0 mg/kg/injection, schedule: Q04DX003 (ip), vehicle: Klucel (hydroxypropylcellulose) (HPC)): 106 % of control; T/C (dose: 400.0 mg/kg/injection, schedule: Q04DX003 (ip), vehicle: Klucel (hydroxypropylcellulose) (HPC)): 95 % of control

What does the source list for `Cc1nccc2c1[nH]c1cc(N)ccc12.[Cl][Sn][Cl]`?
T/C (dose: 5.0 mg/kg/injection, schedule: Q01DX009 (ip), vehicle: saline sonified): 100 % of control; T/C (dose: 10.0 mg/kg/injection, schedule: Q01DX009 (ip), vehicle: saline sonified): 95 % of control; T/C (dose: 20.0 mg/kg/injection, schedule: Q01DX009 (ip), vehicle: saline sonified): 100 % of control

With `c1ccc(C2=NC(c3ccccc3)=NS(S3=NC(c4ccccc4)=NC(c4ccccc4)=N3)=N2)cc1` (configuration not stated) as the compound, how does the T/C [7] read?
Its T/C is 106 % of control.

And the T/C [8]?
The T/C was 90 % of control.

What about the T/C [9] of the same compound?
The T/C was 88 % of control.

How did the T/C (dose: 3.0 mg/kg/injection, schedule: Q01DX005 (ip), vehicle: saline + alcohol) turn out when `COC(=O)C1CCC2C(C1)OC1(CC(OC(=O)/C=C/c3ccccc3)C(C)CO1)C21CO1` (configuration not stated) was run?
The T/C was 100 % of control.

And the T/C (dose: 5.0 mg/kg/injection, schedule: Q01DX009 (ip), vehicle: saline + alcohol)?
Its T/C is 95 % of control.

And the T/C (dose: 6.0 mg/kg/injection, schedule: Q01DX005 (ip), vehicle: saline + alcohol)?
Its T/C is 97 % of control.

And the T/C (dose: 10.0 mg/kg/injection, schedule: Q01DX009 (ip), vehicle: saline + alcohol)?
Its T/C is 106 % of control.

And the T/C (dose: 12.0 mg/kg/injection, schedule: Q01DX005 (ip), vehicle: saline + alcohol)?
The T/C was 97 % of control.

What about the T/C (dose: 20.0 mg/kg/injection, schedule: Q01DX009 (ip), vehicle: saline + alcohol) of the same compound?
The T/C was 103 % of control.

And the T/C (dose: 24.0 mg/kg/injection, schedule: Q01DX005 (ip), vehicle: saline + alcohol)?
The T/C was 99 % of control.

What about the T/C (dose: 40.0 mg/kg/injection, schedule: Q01DX009 (ip), vehicle: saline + alcohol) of the same compound?
Its T/C is 103 % of control.

`CC1(O)CCC(O)CC1CC[N+](C)(C)[O-]` (configuration not stated) was tested. Which T/C (dose: 50.0 mg/kg/injection, schedule: Q01DX005 (ip), vehicle: saline) did it give?
The T/C was 102 % of control.

And the T/C (dose: 100.0 mg/kg/injection, schedule: Q01DX005 (ip), vehicle: saline)?
Its T/C is 99 % of control.

And the T/C (dose: 200.0 mg/kg/injection, schedule: Q01DX005 (ip), vehicle: saline)?
Its T/C is 102 % of control.

With `COc1ccc2ccccc2c1C(=O)CCCc1ccccc1` as the compound, how does the T/C (dose: 25.0 mg/kg/injection, schedule: Q01DX009 (ip), vehicle: other) read?
Its T/C is 98 % of control.

And the T/C (dose: 50.0 mg/kg/injection, schedule: Q01DX009 (ip), vehicle: other)?
Its T/C is 98 % of control.

What about the T/C (dose: 100.0 mg/kg/injection, schedule: Q01DX009 (ip), vehicle: other) of the same compound?
Its T/C is 98 % of control.

And the T/C (dose: 200.0 mg/kg/injection, schedule: Q01DX009 (ip), vehicle: other)?
Its T/C is 92 % of control.

What about the T/C (dose: 400.0 mg/kg/injection, schedule: Q01DX009 (ip), vehicle: other) of the same compound?
The T/C was 105 % of control.

Which results are given for `CC1=NN(c2cccc(S(=O)(=O)O)c2)C(=O)C1N=Nc1cc(Cl)cc(S(=O)(=O)O)c1O.O.[Cr]` (configuration not stated)?
T/C [10]: 114 % of control; T/C [11]: 108 % of control; T/C [12]: 115 % of control

What does the source list for `O=C(NC1CCCCC1)Oc1ccccc1-c1ccccc1`?
T/C (dose: 100.0 mg/kg/injection, schedule: Q01DX001 (ip), vehicle: saline with Tween-80): 100 % of control; T/C (dose: 200.0 mg/kg/injection, schedule: Q01DX001 (ip), vehicle: saline with Tween-80): 100 % of control; T/C (dose: 400.0 mg/kg/injection, schedule: Q01DX001 (ip), vehicle: saline with Tween-80): 100 % of control

What does the source list for `CCN(CC)CCNc1ccc(CO)c2oc3ccc(O)cc3c(=O)c12`?
T/C [7]: 171 % of control and 189 % of control; T/C [8]: 214 % of control and 217 % of control

What does the source list for `O=c1c2cnc(-c3ccccc3)nc2oc2ccc3ccccc3c12`?
T/C [4]: 97 % of control; T/C [5]: 96 % of control; T/C [6]: 87 % of control and 92 % of control; T/C (dose: 100.0 mg/kg/injection, schedule: Q01DX009 (ip), vehicle: saline with Tween-80): 90 % of control

Which results are given for `Cc1ccc(O)c(C2CC(=O)NC(N)=N2)c1` (configuration not stated)?
T/C [10]: 110 % of control; T/C [11]: 101 % of control; T/C [12]: 104 % of control

Which results are given for `O=C(O)CNC(=O)OCC1c2ccccc2-c2ccccc21`?
T/C [1]: 100 % of control; T/C [2]: 95 % of control; T/C [3]: 100 % of control

What does the source list for `CC1(C)c2ccccc2-c2nc3ccccc3cc2C1N1CCOCC1` (configuration not stated)?
T/C [7]: 92 % of control; T/C [8]: 104 % of control; T/C [9]: 101 % of control

For `C[N+]1(C)CCCC(C(=O)c2ccccc2)C1` (configuration not stated), which T/C (dose: 3.75 mg/kg/injection, schedule: Q01DX005 (ip), vehicle: saline) is on record?
Its T/C is 119 % of control.

What about the T/C (dose: 7.5 mg/kg/injection, schedule: Q01DX005 (ip), vehicle: saline) of the same compound?
The T/C was 108 % of control.

And the T/C (dose: 15.0 mg/kg/injection, schedule: Q01DX005 (ip), vehicle: saline)?
The T/C was 103 % of control.

And the T/C (dose: 30.0 mg/kg/injection, schedule: Q01DX005 (ip), vehicle: saline)?
Its T/C is 100 % of control and 101 % of control.

`COc1ccc(CCN2CCC(CC3CCCCN3)CC2)cc1OC` (configuration not stated) was tested. Which T/C (dose: 12.5 mg/kg/injection, schedule: Q01DX009 (ip), vehicle: distilled water + alcohol) did it give?
Its T/C is 103 % of control.

What about the T/C (dose: 25.0 mg/kg/injection, schedule: Q01DX009 (ip), vehicle: distilled water + alcohol) of the same compound?
The T/C was 112 % of control.

And the T/C (dose: 50.0 mg/kg/injection, schedule: Q01DX009 (ip), vehicle: distilled water + alcohol)?
Its T/C is 105 % of control.

And the T/C (dose: 100.0 mg/kg/injection, schedule: Q01DX009 (ip), vehicle: distilled water + alcohol)?
Its T/C is 103 % of control.

Which T/C (dose: 60.0 mg/kg/injection, schedule: Q01DX005 (ip), vehicle: saline with Tween-80) does the source give for `O=c1ccnc2ccccn12` here?
Its T/C is 94 % of control.

What about the T/C (dose: 120.0 mg/kg/injection, schedule: Q01DX005 (ip), vehicle: saline with Tween-80) of the same compound?
The T/C was 107 % of control.

What about the T/C (dose: 240.0 mg/kg/injection, schedule: Q01DX005 (ip), vehicle: saline with Tween-80) of the same compound?
The T/C was 100 % of control.

Which T/C (dose: 50.0 mg/kg/injection, schedule: Q01DX009 (ip), vehicle: Klucel (hydroxypropylcellulose) (HPC)) does the source give for `CC(/C=C/c1ccccc1)=N\Nc1c(F)c(F)c(F)c(F)c1F` here?
The T/C was 103 % of control.

And the T/C (dose: 100.0 mg/kg/injection, schedule: Q01DX009 (ip), vehicle: Klucel (hydroxypropylcellulose) (HPC))?
The T/C was 102 % of control.

And the T/C (dose: 200.0 mg/kg/injection, schedule: Q01DX009 (ip), vehicle: Klucel (hydroxypropylcellulose) (HPC))?
Its T/C is 100 % of control.

With `CCCCc1c(OC)cc(O)c2c1C(=O)c1[nH]c(C(=O)O)c(O)c(=O)c1C2=O` as the compound, how does the T/C (dose: 7.5 mg/kg/injection, schedule: Q01DX009 (ip), vehicle: Klucel (hydroxypropylcellulose) (HPC)) read?
Its T/C is 98 % of control.

And the T/C (dose: 15.0 mg/kg/injection, schedule: Q01DX009 (ip), vehicle: Klucel (hydroxypropylcellulose) (HPC))?
Its T/C is 100 % of control.

What about the T/C (dose: 30.0 mg/kg/injection, schedule: Q01DX009 (ip), vehicle: Klucel (hydroxypropylcellulose) (HPC)) of the same compound?
The T/C was 95 % of control.
